Tests used:
Type in all cases: cell-based, Chinese hamster
[1] = test system: GS-CHO cells (Cell line A); assay: Growth (viable cell density) of GS-CHO cells in Medium A spiked with putative inhibitor metabolites; details: single metabolite
Method: GS-CHO cells producing a recombinant antibody were inoculated at low viable cell densities (0.1E6 cells/mL) in various conditions in 5 ml volume, 6-well plate cultures. […] The pH of the Medium A, spiked-in with any one of the nine metabolites or any combination of the nine metabolites, was adjusted to 7 before inoculating the cells (on day 0).
For indolelactate, the stock solution (500 mM) was prepared in DMSO. […] All the conditions were run in duplicates or triplicates. Growth of the cells in above described conditions was monitored for 5 or 6 days.

CHO cell line A = assay: Growth of CHO cell line A in Medium A supplemented with 2-methylbutyrate or isobutyrate; details: at concentrations higher than 1 mM; monitored 5 days
Method: CHO cell line A producing a recombinant antibody were inoculated at low cell densities (0.1E6 cells/mL) in various conditions in triplicates in 6-well plate cultures. The working volume for each well on day 0 was 4 mL. […] The 6-well plates were incubated on a shaking platform in 36.5 C and 5% carbon dioxide. Cell growth in all the conditions was monitored for 5 days.

BCAT1 = assay: Western blot of BCAT1 protein after transient miRNA transfection, CHO parental cell line; details: CHO parental cell line transient transfections, vs untransfected and negative control miRNA
Method: miRNA knockdown works by expressing small RNA sequences (approximately 20-25 bases) that are complimentary to a target gene sequence (e.g. BCAT1). The miRNA binds to the messenger RNA (mRNA) of the target gene forming a region of double stranded RNA. […] Micro RNA knockdown of BCAT1 was performed using the BLOCK-iT Inducible Pol II miR RNAi Expression Vector Kit with EmGFP (Invitrogen). Five miRNA oligonucleotide pairs (complementary top and bottom strand of BCAT1) were designed using an online tool called Block-iT RNAi Designer and the DNA oligonucleotides were prepared by Integrated DNA technologies. The oligonucleotide pairs were annealed and ligated into the pcDNA™6.2-GW/EmGFP-miR vector. The vectors (five of them) were sequence confirmed by WyzerBiosciences (Cambridge, Mass.). The five miRNA vectors or a negative control vector named pcDNA™6.2-GW/EmGFP-miR-neg (provided by Invitrogen with the kit) were transfected into CHO parental cell line or CHO cell line B using the GenePulser XCell eletroporator (BioRad) and were left to recover for two days. After two days, cells were either subjected to selection pressure by antibiotic (blasticidin, 10 ug/mL) for generation of stable cell pools (see Example 24), or cell lysates from the transfected cells (or untransfected cells) were prepared in M-PER protein extraction reagent (Thermo Fisher) supplemented with cOmplete, Mini, EDTA-free Protease Inhibitor Cocktail (Roche). The samples were analyzed by western blot using the Novex NuPage system (Thermo Fisher). The system provides polyacrylamide gels, sample loading buffer, sample reductant, gel running buffer, protein mass standard, nitrocellulose membrane, and chemiluminescence detection reagent. The blots were probed with a rabbit polyclonal anti-BCAT1 antibody (AbCam, Cat#ab110761) or a B-Actin antibody (AbCam, Cat#ab8227). The western blots were imaged using a BioRad ChemiDoc system and analyzed for levels of B-actin and BCAT1.

[2] = at concentrations higher than 0.5 mM or 1 mM

CCC(O)C(=O)O (stereo not drawn) [2-hydroxybutyric acid]
effect on growth of cells [1, 2]: Modest inhibition of growth

O=C(O)C(O)Cc1ccc(O)cc1 (stereo not drawn) [3-(4-hydroxyphenyl)lactate]
effect on growth of cells [1, 2]: Modest inhibition of growth

O=CO [Formate]
effect on growth of cells ([1]; at concentrations 2 mM and beyond): negative effect on growth

O=C(O)c1c[nH]c2ccccc12 [Indolecarboxylic acid]
effect on growth of cells ([1]; at concentrations of 1 mM or lower, growth monitored 5 or 6 days): potent negative effect on growth

O=C(O)C(O)Cc1c[nH]c2ccccc12 (stereo not drawn) [Indolelactate]
effect on growth of cells ([1]; at concentrations of 3 mM or below, DMSO controls): little or no effect on growth

O=C(O)[C@H](O)Cc1ccccc1 [L-phenyllactate]
effect on growth of cells ([1]; at 1 mM concentration): mild effect on growth

N[C@@H](CCS)C(=O)O [homocysteine]
effect on growth of cells [1, 2]: Modest inhibition of growth

CC(C)C(=O)O [isobutyrate]
cell growth (CHO cell line A): suppressed

miRNA Seq 2.1a: BCAT1 miRNA sequence TCTGCTGTGAGGACCACTTTG expressed from pcDNA6.2-GW/EmGFP-miR vector (listed as Cricetulus griseus)
BCAT1 protein level (western blot) (BCAT1): lower level of BCAT1 protein

miRNA Seq 3.1a: BCAT1 miRNA sequence AGTGGGCACGATGAATCTGTT expressed from pcDNA6.2-GW/EmGFP-miR vector (listed as Cricetulus griseus)
BCAT1 protein level (western blot) (BCAT1): lower level of BCAT1 protein

miRNA Seq 4.1a: BCAT1 miRNA sequence CACGATGAATCTGTTCCTCTA expressed from pcDNA6.2-GW/EmGFP-miR vector (listed as Cricetulus griseus)
BCAT1 protein level (western blot) (BCAT1): lower level of BCAT1 protein

miRNA Seq 5.1a: BCAT1 miRNA sequence CTTGGGCAAACTGACTGATAT expressed from pcDNA6.2-GW/EmGFP-miR vector (listed as Cricetulus griseus)
BCAT1 protein level (western blot) (BCAT1): lower level of BCAT1 protein

— patent US11718864B2, “Cells and method of cell culture” (PFIZER INC., priority 2015, dated 2023)
